What all share (assay type): functional
What all share (parameters): concentration or dose not given beside the values

The test system of experiment [1] is Plasmodium falciparum. Kind of experiment: MMV: P. falciparum NF54 functionally mature Stage V gametocytes were incubated for 24 hr in the presence of the test compounds. Gamete formation was then triggered by addition of 2uM xantheurenic acid and temperature decrease to ~20C. Male gamete exflagellation was recorded and analysed by automated microscopy after 20 min. All compounds were tested in 4 independent experiments and data presented here is the mean.

The next experiment has as its system Plasmodium berghei. Kind of experiment: MMV: P. berghei-infected blood was withdrawn from mice by cardiac pucture before being immediately added to ookinete culture medium containing test compounds. 26 hr later, GFP-positive ookinetes were identified and counted by automated microscopy. All compounds were tested in 4 independent experiments and data presented here is the mean.

For experiment [2], the system named is Plasmodium falciparum. As to the kind of experiment: MMV: P. falciparum NF54 functionally mature Stage V gametocytes were incubated for 24 hr in the presence of the test compounds. Gamete formation was then triggered by addition of 2uM xantheurenic acid and temperature decrease to ~20C. Female gamete formation was recorded 24 hr later by automated microscopy detection of surface labelling of female gametes with a Cy3-conjugated antibody reactive to Pfs25. All compounds were tested in 4 independent experiments and data presented here is the mean. The settings on record: NF54, 24 h.

Inhibition data for 35 molecules are collected here from ChEMBL document CHEMBL3301451, “MMV Malaria Box gametocyte functional viability assay screening”.

Broadly, the inhibition is the change of the read-out against control, counted positive when it falls. In the case of `Cc1cc(C)cc(Nc2cc(C)nc3nc(C(F)(F)F)nn23)c1`, the inhibition in the experiment with Plasmodium falciparum [1] was 13.1%; in the experiment on Plasmodium berghei, -26.51%; in the experiment on Plasmodium falciparum [2], -17.3%.
As for `O=C(NCC(c1ccsc1)N1CCCCCC1)c1ccc(C(F)(F)F)cc1` (stereo not given), the inhibition in the experiment on Plasmodium falciparum [1] was -14.6%; with Plasmodium berghei it was -31.95%; with Plasmodium falciparum [2], -37.4%.
The like results for `COc1ccc(-c2cc3c(SCC(=O)Nc4cc(C(F)(F)F)ccc4Cl)nccn3n2)cc1` were, in that order, 23.5%, -25.97% and -16.8%.
The like results for `CCN(CC)CCNc1ccnc2cc(Cl)ccc12` were, in that order, -16.3%, -23.67% and -29.9%.
As to `CCc1c(C)c(=N)c2ccccc2n1C.I`, the inhibition is -21.8% with Plasmodium falciparum [1], -36.84% with Plasmodium berghei and -14.1% with Plasmodium falciparum [2].
For the molecule `CC(C)(C)c1ccc(O)c(CNC2CCCCC2)c1`, the inhibition in the experiment on Plasmodium falciparum [1] is -29.4%; with Plasmodium berghei, -33.89%; with Plasmodium falciparum [2], 3.67%.
The like results for `CCOc1cc2c(cc1OCC)C(c1cc(OC)c(O)cc1Cl)NCC2` (stereo not given) were, in that order, 19.6%, -21.67% and -6.96%.
The like results for `COc1ccc(C2=C(c3ccc(OC)cc3)C3(c4ccccc4)C(=O)C2(c2ccccc2)C2C(=O)N(c4ccc(C)cc4)C(=O)C23)cc1` (stereo not given) were, in that order, -9%, -21.97% and 7.88%.
The like results for `COc1ccc(CNC(=O)c2cc3c(=O)n4ccccc4nc3n(CCc3ccccc3)c2=N)cc1` were, in that order, -25%, -21.18% and 0.565%.
On to `CCOC(=O)c1c(NC(=O)c2ccccc2)sc2c(O)c(CN(CC)CC)ccc12`, for which the figures for the inhibition with Plasmodium falciparum [1], in the experiment with Plasmodium berghei and in the experiment with Plasmodium falciparum [2] were 51%, -23.17% and -19.6%, respectively.
The like results for `CCOC(=O)C1=C(c2ccccc2)N=c2sc(=Cc3cc(C)n(-c4ccc(F)cc4)c3C)c(=O)n2C1c1cccc(OC)c1OC` (stereo not given) were, in that order, 17.4%, -41.23% and -0.952%.
The like results for `CCC1(C)CC(CCNCc2ccccc2O)(c2ccc(C)cc2)CCO1` (stereo not given) were, in that order, -6.89%, -38.74% and 7.59%.
The like results for `CCCN(CCC)CC(O)COc1ccccc1C(=O)Nc1ccccc1` (stereo not given) were, in that order, 0.885%, -27.28% and -10.5%.
As for `Fc1ccc2[nH]c3c(NCCCN4CCOCC4)ncnc3c2c1`, the inhibition is 14.8% in the experiment with Plasmodium falciparum [1], -27.65% in the experiment on Plasmodium berghei and -13.7% in the experiment on Plasmodium falciparum [2].
The like results for `CC(=O)c1sc(NC(=O)Nc2ccc(C)cc2C)nc1C` were, in that order, -39.7%, -22.74% and -20.1%.
The like results for `Oc1ccc2ccccc2c1CNc1nc2ccccc2[nH]1` were, in that order, 31.6%, -28.7% and -19.1%.
The like results for `CCOC(=O)c1c(C)n(-c2ccc(Cl)cc2)c2ccc(OC(=O)C=Cc3ccccc3)cc12` were, in that order, 18.8%, -22.23% and -9.97%.
With `O=C(Nc1ccc(-c2nc3ccccc3[nH]2)cc1)c1ccc(Cl)c(Cl)c1`, the inhibition in the experiment on Plasmodium falciparum [1] is 4.23%; in the experiment with Plasmodium berghei, -25.94%; in the experiment with Plasmodium falciparum [2], -34.9%.
The like results for `C=CC12CCN(CC1)C(C(O)c1ccnc3ccc(OC)cc13)C2.Cl` (stereo not given) were, in that order, -29.1%, -25.15% and -31.3%.
The like results for `Cc1cccc(Nc2nc(N)c3ccccc3n2)c1.Cl` were, in that order, -38.3%, -25.03% and -22.2%.
With `COc1ccccc1C(=O)ON=C(N)Cc1cccc2ccccc12`, the inhibition with Plasmodium falciparum [1] was 30.9%; in the experiment on Plasmodium berghei, -22.37%; in the experiment on Plasmodium falciparum [2] it was 14.9%.
As to `CCCc1cc(O)c2c3c(c(=O)oc2c1)CN(C)CC3`, the inhibition in the experiment on Plasmodium falciparum [1] was 2.76%; in the experiment with Plasmodium berghei, -29.34%; in the experiment with Plasmodium falciparum [2], -29.9%.
The like results for `Cl.Oc1ccccc1CNCC12CC3CC(CC(C3)C1)C2` were, in that order, -27.5%, -22.21% and -6.61%.
The like results for `O=C(Nc1ccc(-c2nc3cc4ccccc4cc3[nH]2)cc1)c1cccc(Br)c1` were, in that order, 30.7%, -21.87% and -0.0992%.
The like results for `Cc1cc(C=C2SC(=Nc3ccccc3)N(C3CCCC3)C2=O)c(C)n1-c1ccc(Cl)cc1` were, in that order, 31.4%, -28.39% and -30.5%.
Consider `OC(CNC1CCCCC1)Cn1c2ccc(I)cc2c2cc(I)ccc21` (stereo not given), for which the inhibition with Plasmodium falciparum [1] is -12.3%; in the experiment with Plasmodium berghei, -21.59%; with Plasmodium falciparum [2], -48%.
The like results for `CCc1ccc(Nc2cc(C)c3ccc(O)cc3n2)cc1.Cl` were, in that order, 15.2%, -20.95% and -14%.
With `COc1ccc2c(=O)cc(C(Cl)(Cl)Cl)oc2c1`, the inhibition with Plasmodium falciparum [1] is 31.7%; with Plasmodium berghei, -22.17%; with Plasmodium falciparum [2] it was -23.2%.
In the case of `Oc1ccc(Br)cc1CN1CCN(Cc2ccc(Cl)cc2)CC1`, the inhibition was -54.3% with Plasmodium falciparum [1], -27.93% in the experiment with Plasmodium berghei and -35.8% with Plasmodium falciparum [2].
Regarding `COc1ccc(CCNC(=O)c2cc(S(=O)(=O)N3CC(C)CC(C)C3)ccc2Sc2ccc(F)cc2)cc1OC` (stereo not given), the inhibition was -26.1% with Plasmodium falciparum [1], -21.03% in the experiment with Plasmodium berghei and 4.07% in the experiment on Plasmodium falciparum [2].
The like results for `CCCc1c(CC)c(=N)c2ccccc2n1C` were, in that order, -39.2%, -31.4% and -32.4%.
The like results for `COc1ccc2sc(N(Cc3cccnc3)C(=O)c3ccc(C#N)cc3)nc2c1` were, in that order, 18.5%, -20.76% and -25.4%.
The like results for `Cc1c(C)n(CC(O)CNC2CCCCC2C)c2ccccc12` (stereo not given) were, in that order, 8.26%, -21.36% and -4.05%.
`Nc1ccn([C@@H]2O[C@H](CO)[C@@H](O)[C@H]2O)c(=O)n1` [CYTIDINE]: the inhibition in the experiment on Plasmodium falciparum [1] is -18.8%; in the experiment on Plasmodium berghei, -17.3%; in the experiment with Plasmodium falciparum [2], -25.7%.
Take `O=C(Nc1cccc(C2=NCCN2)c1)Nc1cccc(C2=NCCN2)c1` [IMIDOCARB]: the figures for the inhibition in the experiment on Plasmodium falciparum [1], in the experiment on Plasmodium berghei and with Plasmodium falciparum [2] were -36.7%, -13.35% and -30.2%, respectively.
